The values below come from paper PMC11973094, “Formononetin and mizoribine inhibit Porcine Reproductive and Respiratory Syndrome Virus replication in vitro” (Frontiers in Nutrition, 2025).

One may read the CC50 as the concentration that lowers cell viability or growth by half. Low values mean harm at low concentration, high ones better tolerance by the cells. Usually EC50 stands for the concentration at which the effect is half-maximal. For orientation: EC90 means the concentration at which the effect reaches the 90% level.

The subject of data set [1] is Marc-145 cells. The data set is described as follows: Cytotoxicity (CC50) by CCK-8 assay in Marc-145 cells. The following applies: for Non-cytotoxic concentrations: Marc-145 and PAM cells, treatment durations shorter than 48 h. The class given is cell-based. As for the experimental part: Cells were treated in a 96-well plate using DMEM supplemented with 8% FBS. After achieving a monolayer formation, the cells were treated with multiple concentrations of the test compound, which were diluted in DMEM containing 2% FBS and added to six replicate wells. As a control, a blank solution consisting of 0.5% DMSO in DMEM was employed. […] Subsequently, the half-maximal cytotoxic concentrations (CC50) was measured following the protocol described in section 2.2 of our previous work ([18]). […] EC50 was determined by assessing PRRSV genomic expression levels after three freeze–thaw cycles, and results were plotted using GraphPad Prism 8.
(§1) Figure 2 Evaluating the cytotoxicity of FMN and MZR on Marc-145 and PAM Cells. (A,B) CC50 values for FMN in Marc-145 cells at 48 and 72 h, determined via the CCK-8 assay. (C,D) CC50 of FMN in PAM cells assessed at 48 and 72 h. (E,F) CC50 values for MZR in Marc-145 cells at 48 and 72 h. (G,H) CC50 for MZR in PAM cells, also measured at 48 and 72 h. (I) The antiviral activity of FMN against the PRRSV VR-2332 strain, evaluated via IFA. (J) Antiviral effectiveness of MZR against the VR-2332 strain, assessed using IFA. Control samples were treated with a matching volume of 0.4% DMSO in DMEM. Black dots within the figure symbolize individual data points from each independent experiment. IFA images are from three experimental replicates.
A general note: Tetrazolium dyes change colour on reduction, which living cells bring about.

In data set [2] the test system is PRRSV GSWW-18 strain. The data set is described as follows: Viral titer and gene expression of GSWW-18 strain in PAM cells. The class given is cell-based, Porcine Reproductive and Respiratory Syndrome Virus. The following applies: 36 h. As for the experimental part: (§2) Viral solutions were diluted in a 10-fold gradient. Aliquots of solutions containing varying concentrations of the virus (100 μL each) and DMEM with 2% FBS (100 μL) were added to each well. Add 100 μL of 2% FBS DMEM (without PRRSV) to the control wells. The plates were incubated for 4 days at 37°C in a humidified atmosphere with 5% CO2, after which the virus TCID50 values were calculated using the Reed and Muench formula. To evaluate PRRSV gene expression, we employed the relative quantitative Reverse Transcription Quantitative Polymerase Chain Reaction (qRT-PCR) technique. The resultant data were processed using Design & Analysis Software (Thermo, version 2.6.0) and normalized based on the 2^−ΔΔCt method. For the determination of viral copy numbers, absolute quantitative qRT-PCR was utilized, with sample normalization achieved by quantifying plasmid concentrations prior to the detection process. The specific methods are as described in section 2.4 of our previous paper ([18]). The upstream and downstream primers were: PRRSV 5’-[…]’ and 5’-[…]-3′; Marc-145-GAPDH 5’-[…]-3′ and 5’-[…]-3′; PAM-GAPDH 5’-TCTGGCAAAGTGGACATT-3′ and 5’-[…]-3′.
(§3) Figure 4 Inhibitory effects of FMN and MZR on GSWW-18 and GSWW-15 Strains. (A,C) Changes in PRRSV viral titers in PAM cells incubated with 20 μM of FMN or MZR for 36 h with the GSWW-18 strain. (B,D) Changes in PRRSV viral genome in PAM cells after 36 h of incubation with 20 μM of FMN or MZR with the GSWW-15 strain. The black dots in the figure represent the raw data from each independent experiment. p-values were calculated using one-way ANOVA with Dunnett’s multiple-comparison test. The p-value less than 0.03 was considered statistically significant. Error bars represent the mean ± SD.

Data set [3] is described as follows: Cytotoxicity (CC50) by CCK-8 assay in PAM cells. Format: cell-based, Porcine. The following applies: pig. As for the experimental part:
(§4) Cells were treated in a 96-well plate using DMEM supplemented with 8% FBS. After achieving a monolayer formation, the cells were treated with multiple concentrations of the test compound, which were diluted in DMEM containing 2% FBS and added to six replicate wells. As a control, a blank solution consisting of 0.5% DMSO in DMEM was employed. The cells treated with the compound were incubated at 37°C in a humidified atmosphere with 5% CO2 for 48 or 72 h. Subsequently, the half-maximal cytotoxic concentrations (CC50) was measured following the protocol described in section 2.2 of our previous work ([18]). […] EC50 was determined by assessing PRRSV genomic expression levels after three freeze–thaw cycles, and results were plotted using GraphPad Prism 8.
as §1

The test system of data set [4] is PAM cells. The data set is described as follows: Cytotoxicity (CC50) by CCK-8 assay in PAM cells. The class given is cell-based, Porcine. As for the experimental part:
as §4, §1

Data set [5] concerns PRRSV VR-2332 strain. The data set is described as follows: Time-of-addition assay, Marc-145 cells infected with VR-2332 (MOI = 1). The class given is cell-based, Porcine Reproductive and Respiratory Syndrome Virus. The text has this: The assay commenced with seeding cells into a 96-well plate, followed by their cultivation in DMEM supplemented with 8% FBS. Upon achieving a monolayer, the cells were infected with the VR-2332 strain of PRRSV at a multiplicity of infection (MOI) of 1. One hour after infection, the viral inoculum was discarded, and the cells were cleansed with ice-cold PBS. DMSO or various concentrations of FMN or MZR were then introduced to the culture at different time intervals, as depicted in Figure 1A. Thirty-six hours post-infection, the expression levels of PRRSV RNA were quantified using previously described methods.
Figure 1 Time-of-addition experiment with FMN or MZR. (A) This schematic diagram illustrates the classical experimental protocol for administering drugs at different time points. The experiment began with Marc-145 cells uniformly infected with VR-2332 (MOI = 1) at 0 h, followed by adding varying concentrations of FMN or MZR at specific times. (B,C) FMN or MZR was introduced at −4, 0, 2, 4, 8, and 16 h to examine their impact on various stages of PRRSV replication. All samples were collected for analysis 36 h post-infection. The colors of the bars in the figure correspond to the time points as detailed in (A). Each symbol represents an independent biological replicate. The p-values are indicated, with ‘ns’ denoting p > 0.1234. These values were calculated using one-way ANOVA with Dunnett’s multiple-comparison test, and a p-value less than 0.0332 was considered statistically significant.

The subject of data set [6] is PRRSV VR-2332 strain. The data set is described as follows: Viral titer (TCID50) and viral genome (qRT-PCR) of VR-2332 after 36-h incubation with the compounds. The class given is cell-based, Porcine Reproductive and Respiratory Syndrome Virus. The note with it: for Correlation of concentration with relative expression of the PRRSV genome / Correlation of concentration with viral titer: 36-h incubation, linear fit slope m negative; for Concentrations effectively suppressing viral replication: dose-dependent inhibition. As for the experimental part: as §2
Figure 3 Assessing the antiviral potency of FMN and MZR on PRRSV. This figure delineates the evaluation of FMN and MZR at varying concentrations for their antiviral effects on the VR-2332 strain. (A,C) Display the EC50 of FMN in PAM and Marc-145 cells, respectively. (B,D) Illustrate the EC50 of MZR in PAM and Marc-145 cells. (E,F) Show alterations in the viral titers of the VR-2332 strain post 36-h incubation with distinct concentrations of FMN or MZR. (G,H) Represent the viral genome changes under similar conditions. Each point in the figure corresponds to raw data from individual experiments. Linear fit slopes are marked in red. Error bars indicate the mean ± SD. TEXT PRINTED IN THE PICTURE: (A) FMN: PAM: EC50: 8.716; PAM: EC90: 223.542 | (B) MZR: PAM: EC50: 8.274; PAM: EC90: 19.945 | (C) FMN: Marc-145: EC50: 16.863; Marc-145: EC90: 104.819 | (D) MZR: Marc-145: EC50: 22.335; Marc-145: EC90: 63.856
A general note: In qPCR the cycle at which signal appears reflects the starting amount.

Data set [7] relates to PRRSV GSWW-15 strain. The data set is described as follows: Viral titer and gene expression of GSWW-15 strain in PAM cells. The class given is cell-based, Porcine Reproductive and Respiratory Syndrome Virus. The note with it: 36 h. As for the experimental part:
as §2, §3

The test system of data set [8] is PRRSV VR-2332 strain. The data set is described as follows: Antiviral EC50 against PRRSV VR-2332 in PAM cells (PRRSV genomic expression). The note with it: Porcine reproductive and respiratory syndrome virus. The class given is cell-based. As for the experimental part: as §2
(§5) Cells were treated in a 96-well plate using DMEM supplemented with 8% FBS. After achieving a monolayer formation, the cells were treated with multiple concentrations of the test compound, which were diluted in DMEM containing 2% FBS and added to six replicate wells. As a control, a blank solution consisting of 0.5% DMSO in DMEM was employed. The cells treated with the compound were incubated at 37°C in a humidified atmosphere with 5% CO2 for 48 or 72 h. Subsequently, the half-maximal cytotoxic concentrations (CC50) was measured following the protocol described in section 2.2 of our previous work ([18]). For the determination of the half-maximal effective concentration (EC50), each concentration was tested in triplicate wells, using 0.4% DMSO as a blank control. EC50 was determined by assessing PRRSV genomic expression levels after three freeze–thaw cycles, and results were plotted using GraphPad Prism 8.

Data set [9] deals with PRRSV VR-2332 strain. The data set is described as follows: Antiviral EC50 against PRRSV VR-2332 in Marc-145 cells (PRRSV genomic expression). Format: cell-based. The following applies: Porcine reproductive and respiratory syndrome virus, MARC145, VR-2332 strain. As for the experimental part:
as §2, §5

Data set [10] concerns PRRSV VR-2332 strain. The data set is described as follows: Indirect immunofluorescence assay (IFA) of VR-2332 in PAM cells. The class given is cell-based, Porcine Reproductive and Respiratory Syndrome Virus. The following applies: within the safety range. As to the method:
The following antibodies were used for IFA: Mouse Anti-SR30 (Rtilab, SR30-A) and Goat Anti-Mouse FITC (Bioss, bs-0368G-FITC). After virus inoculation, cells were fixed with 80% cold acetone according to previous experimental conditions for IFA ([18]). A Leica DMI6000 microscope was used for observation.
as §1

The mark [11] stands for this setting: added 16 h after infection, P > 0.1234.
The mark [12] stands for this setting: added in the initial stages post-infection, collected 36 h post-infection.
[13] abbreviates: lower concentrations added 8 h post-infection, P > 0.1234.

Consider `COc1ccc(-c2coc3cc(O)ccc3c2=O)cc1` [FMN, 7-hydroxy-3-(4-methoxyphenyl)-4H-chromen-4-one], for which the Non-cytotoxic concentrations result in data set [1] is reported as “below 100 μM”. Moreover, the Gene expression levels result in data set [2] and in data set [7] was “dose-dependent inverse relationship” each time. For the same compound, the Viral titers entry in data set [2] and in data set [7] was “dose-dependent reduction” throughout. The 50% cytotoxic concentration (CC50) at 72 h in [3] (72 h, printed in the picture of Figure 2D, no unit) was 52 µM; in [3] (72 h exposure), 52 µM. Further, the Cytotoxicity result in data set [4] (48 h) is reported as “non-toxic”. The “Effect on PRRSV replication (PRRSV RNA)” value is “entirely ineffective” in data set [5] (setting [11]), “pronounced antiviral activity” in data set [5] (setting [12]) and “did not significantly impede PRRSV replication” in data set [5] (setting [13]). Further, the “Correlation of concentration with relative expression of the PRRSV genome” value in data set [6] is listed as “negatively correlated”. Further, the “Correlation of concentration with viral titer” value in data set [6] is “negatively correlated”. The “Concentrations effectively suppressing viral replication” value in data set [6] is listed as “above 20 μM”. Moreover, the EC50 in [8] is roughly 8.72 µM; in data set [8] (Figure 3, unit inferred), 8.72 µM; in [9], roughly 16.9 µM; in [9] (Figure 3, unit inferred), 16.9 µM. The EC90 in data set [8] (Figure 3, unit inferred) was 224 µM; in [9] (Figure 3, unit inferred), 105 µM. For the same compound, the “Antiviral activity by IFA” value in data set [10] was “antiviral efficacy”.

Turning to `NC(=O)c1ncn([C@@H]2O[C@H](CO)[C@@H](O)[C@H]2O)c1O` [MZR, 1-[(2R,3R,4S,5R)-3,4-dihydroxy-5-(hydroxymethyl)oxolan-2-yl]-5-hydroxy-1H-imidazole-4-carboxamide, reference compound], in data set [1], the Non-cytotoxic concentrations entry was “below 100 μM”. Further, the Cytotoxicity result in data set [1] (Marc-145 cells, various concentrations, 48 and 72 h) is given as “minimal cytotoxicity”; in data set [4] (treatment up to 72 h), “negligible cytotoxicity”. Moreover, the Gene expression levels result in data set [2] and in data set [7] was “dose-dependent inverse relationship” throughout. The Viral titers result in data set [2] and in [7] was “dose-dependent reduction” each time. Besides, the “Effect on PRRSV replication (PRRSV RNA)” value is listed as “entirely ineffective” in data set [5] (setting [11]), “pronounced antiviral activity” in [5] (setting [12]) and “did not significantly impede PRRSV replication” in data set [5] (setting [13]). Moreover, the “Correlation of concentration with relative expression of the PRRSV genome” value in data set [6] is recorded as “negatively correlated”. Further, the “Correlation of concentration with viral titer” value in [6] is “negatively correlated”. Also, the “Concentrations effectively suppressing viral replication” value in data set [6] is given as “above 20 μM”. For the same compound, the EC50 in [8] is roughly 8.27 µM; in data set [8] (Figure 3, unit inferred), 8.27 µM; in [9], roughly 22.3 µM; in [9] (Figure 3, unit inferred), 22.3 µM. In addition, the EC90 worked out at 19.9 µM in [8] (Figure 3, unit inferred) and 63.9 µM in data set [9] (Figure 3, unit inferred). Moreover, in data set [10], the “Antiviral activity by IFA” value is recorded as “antiviral efficacy”.
